Columns and labels:
Assay type in all cases: cell-based
[1] = target: T1, TASK-1 (Homo sapiens, UniProt O14649); experiment: dose-response of TASK-1 channel inhibition (electrophysiology; expression details for TASK-1 not given)
T1 construct: gene KCNK3

[2] = target: T2, TASK-3 (Homo sapiens, UniProt Q9NPC2); experiment: whole-cell patch clamp, HEK-293 cells transfected with TASK-3
T2 construct: gene KCNK9

[3] = target: T1, TASK-1; experiment: dose-response curve on human TASK-1 (electrophysiology; value not given)

T1 sequence (O14649 whole entry): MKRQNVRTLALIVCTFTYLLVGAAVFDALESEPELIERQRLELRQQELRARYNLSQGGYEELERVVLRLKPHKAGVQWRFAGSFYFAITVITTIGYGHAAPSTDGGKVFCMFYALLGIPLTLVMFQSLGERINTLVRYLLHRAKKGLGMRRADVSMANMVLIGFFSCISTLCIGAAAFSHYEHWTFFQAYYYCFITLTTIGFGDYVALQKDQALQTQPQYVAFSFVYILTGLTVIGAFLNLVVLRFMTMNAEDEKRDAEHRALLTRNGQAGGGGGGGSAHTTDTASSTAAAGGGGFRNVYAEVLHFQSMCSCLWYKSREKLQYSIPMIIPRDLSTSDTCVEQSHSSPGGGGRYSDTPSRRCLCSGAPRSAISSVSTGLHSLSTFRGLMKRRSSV
T2 sequence (Q9NPC2 whole entry): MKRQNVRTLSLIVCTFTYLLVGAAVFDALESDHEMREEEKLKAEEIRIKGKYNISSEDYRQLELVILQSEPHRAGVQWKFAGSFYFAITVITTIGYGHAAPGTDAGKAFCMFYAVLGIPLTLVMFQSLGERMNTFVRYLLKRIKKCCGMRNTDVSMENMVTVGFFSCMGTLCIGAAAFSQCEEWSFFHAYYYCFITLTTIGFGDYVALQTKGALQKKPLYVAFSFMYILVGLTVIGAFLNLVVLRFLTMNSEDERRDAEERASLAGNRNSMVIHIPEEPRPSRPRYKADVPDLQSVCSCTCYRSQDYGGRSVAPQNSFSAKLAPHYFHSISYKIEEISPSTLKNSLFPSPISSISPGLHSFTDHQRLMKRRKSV

SMILES | IC50 [1] [µM] | IC50 [2] [µM] | IC50 [3]
CC(C(=O)Nc1ccc(O)cc1F)c1cc2cccc(NC(=O)c3ccc(O)cc3)c2o1 (stereo not shown) [DR16.1] | 21.2 ± 5.5 | 14.2 ± 3.4 | –
CC(C(=O)Nc1ccc(O)cc1F)c1cc2ccccc2o1 (stereo not shown) [DR16] | – | 56.8 ± 3.9 | Lead ligand DR16 blocks human TASK channels.
